Results published in PMC10380188, “A Random Forest Model for Peptide Classification Based on Virtual Docking Data” (International Journal of Molecular Sciences, 2023).
No end group written: not given here.

These compounds were tested against porcine epidemic diarrhea virus spike (PEDV S) protein (Porcine epidemic diarrhea virus, UniProt Q91AV1) (assay: SPR affinity assay, KD of six-amino-acid peptides to PEDV S protein). Details: Receptor PEDV S; PEDV peptide dataset used for model performance validation; value repeated on each docking-pose line.
Assay type: binding
Description: (§1) Equilibrium dissociation constants (KD) between all 194 (115 + 79) peptides and their receptor proteins were determined by SPR using the Biacore X100 instrument. Proteins were coupled to the CM5 chip by the EDC/NHS(1-Ethyl-3-(3′-dimethylaminopropyl) carbodiimide/n-Hydroxysuccinimide) method (GE HealthCare, Chicago, IL, USA), followed by running HBS-EP (HEPES Buffered Saline–EDTA–Surfactant P20) buffer (GE HealthCare, USA) that flowed through the entire pipeline. The peptide was diluted in six different concentrations with HBS-EP buffer and flowed into the machine from low to high, and its resonance signal change was detected separately. In each cycle, the peptide solution flowed through the chip at a constant flow rate of 30 μL/min for 120 s, and the peptide reacted fully with the protein, followed by HBS-EP buffer flowing through the chip at the same rate for 120 s, and the peptide was partially dissociated from the protein. Finally, the peptides bound to the proteins were completely eluted off with 0.25% SDS solution for the next cycle until all peptides were detected. The KD between each peptide and protein was calculated and analyzed using Biacore X100 Evaluation Software (Version 2.1) to determine its affinity.
Following the methods described above, a totally new dataset was constructed to further verify the performance of the constructed model. […] Meanwhile, the PEDV peptides were synthesized and tested by SPR successively, and the obtained KD values were further used to define the class of each peptide based on the criteria described above. Finally, the new 6-amino-acid peptide dataset for PEDV S combining all scores of the important features and class information was built to further test the predictive correctness of the RF model (Supplementary Table S2).

Chain of porcine epidemic diarrhea virus spike (PEDV S) protein (Q91AV1 26-1383): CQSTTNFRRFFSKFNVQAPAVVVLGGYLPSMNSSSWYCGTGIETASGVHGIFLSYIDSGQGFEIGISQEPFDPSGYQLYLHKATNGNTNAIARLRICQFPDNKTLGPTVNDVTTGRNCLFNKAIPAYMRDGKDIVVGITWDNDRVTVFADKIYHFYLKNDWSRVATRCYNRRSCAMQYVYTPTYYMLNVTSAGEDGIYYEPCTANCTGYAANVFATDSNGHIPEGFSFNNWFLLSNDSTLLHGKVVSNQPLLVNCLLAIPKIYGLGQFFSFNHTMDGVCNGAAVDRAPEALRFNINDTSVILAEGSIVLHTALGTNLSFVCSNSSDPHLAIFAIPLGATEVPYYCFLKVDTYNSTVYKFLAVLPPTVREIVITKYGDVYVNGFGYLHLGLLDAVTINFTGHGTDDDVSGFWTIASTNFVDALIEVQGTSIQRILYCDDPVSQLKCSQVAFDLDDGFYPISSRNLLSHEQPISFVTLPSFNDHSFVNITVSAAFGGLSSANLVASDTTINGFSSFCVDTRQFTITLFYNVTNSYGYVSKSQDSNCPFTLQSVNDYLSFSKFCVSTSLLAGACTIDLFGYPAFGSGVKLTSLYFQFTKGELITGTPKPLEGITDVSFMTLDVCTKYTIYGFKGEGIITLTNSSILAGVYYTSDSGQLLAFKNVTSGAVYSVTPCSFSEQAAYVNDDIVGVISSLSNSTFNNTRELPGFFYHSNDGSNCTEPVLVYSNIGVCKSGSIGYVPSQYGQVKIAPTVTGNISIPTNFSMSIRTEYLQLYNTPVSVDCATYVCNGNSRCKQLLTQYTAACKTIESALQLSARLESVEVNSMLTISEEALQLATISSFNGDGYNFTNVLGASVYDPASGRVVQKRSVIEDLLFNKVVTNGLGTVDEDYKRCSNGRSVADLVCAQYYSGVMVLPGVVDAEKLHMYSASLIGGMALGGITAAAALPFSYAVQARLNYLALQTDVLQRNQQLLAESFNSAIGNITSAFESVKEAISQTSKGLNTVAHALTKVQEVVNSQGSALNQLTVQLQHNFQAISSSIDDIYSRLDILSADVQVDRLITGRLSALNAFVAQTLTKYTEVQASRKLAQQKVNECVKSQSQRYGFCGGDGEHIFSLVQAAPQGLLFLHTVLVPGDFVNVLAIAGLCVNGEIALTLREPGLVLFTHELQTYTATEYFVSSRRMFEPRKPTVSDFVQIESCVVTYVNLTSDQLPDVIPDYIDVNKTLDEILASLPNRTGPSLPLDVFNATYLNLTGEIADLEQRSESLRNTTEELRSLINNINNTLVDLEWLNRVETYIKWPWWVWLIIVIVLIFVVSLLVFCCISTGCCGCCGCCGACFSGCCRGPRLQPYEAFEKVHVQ

Question: Which Kd does the source give for WHFQNQ [DPL_1037] here?
Answer: Its Kd is 3.23 µM.

Question: FWKAKQ [DPL_1033] was tested. Which Kd did it give?
Answer: Its Kd is 45.5 µM.

Question: With N=C(N)NCCC[C@H](NC(=O)[C@H](CCCCN)NC(=O)[C@H](CO)NC(=O)[C@H](CCCCN)NC(=O)[C@H](Cc1c[nH]c2ccccc12)NC(=O)[C@@H](N)Cc1ccccc1)C(=O)O [DPL_1031] as the compound, how does the Kd read?
Answer: The Kd was 2.16 µM.

Question: WHFHWP [DPL_1045] was tested. Which Kd did it give?
Answer: The Kd was 176 µM.

Question: How did the Kd turn out when WHFFKT [DPL_1039] was run?
Answer: Its Kd is 25.7 µM.

Question: With FWKEAK [DPL_1032] as the compound, how does the Kd read?
Answer: The Kd was 7.72 µM.

Question: WHFKYR [DPL_1041] was tested. Which Kd did it give?
Answer: The Kd was 0.0015 µM.

Question: WHFWWQ [DPL_1044] was tested. Which Kd did it give?
Answer: Its Kd is 88.5 µM.

Question: With WHFNRP [DPL_1046] as the compound, how does the Kd read?
Answer: The Kd was 65.2 µM.

Question: WHFCQH [DPL_1038] was tested. Which Kd did it give?
Answer: Its Kd is 0.16 µM.

Question: For WHFMIY [DPL_1040], which Kd is on record?
Answer: The Kd was 179 µM.

Question: How did the Kd turn out when FWKISH [DPL_1030] was run?
Answer: Its Kd is 28 µM.

Question: With FWKQNKCR [DPL_1034] as the compound, how does the Kd read?
Answer: Its Kd is 24.2 µM.

Question: Which Kd does the source give for WHFEYF [DPL_1043] here?
Answer: Its Kd is 43.7 µM.

Question: How did the Kd turn out when WHFWIV [DPL_1042] was run?
Answer: Its Kd is 15.2 µM.

Question: For WHFSKC [DPL_1036], which Kd is on record?
Answer: Its Kd is 3.22 µM.

Question: FWKQNKFL [DPL_1035] was tested. Which Kd did it give?
Answer: The Kd was 15 µM.

Same assay, conditions: Receptor PEDV S; SPR; value repeated on each docking-pose line of the peptide

Question: How did the Kd turn out when RKQYWQ [DPL_1058] was run?
Answer: The Kd was 728 µM.

Question: For KHQWKY [DPL_1062], which Kd is on record?
Answer: The Kd was 326 µM.

Question: For RKQHLL [DPL_1055], which Kd is on record?
Answer: The Kd was 1 µM.

Question: For RKQHIS [DPL_1056], which Kd is on record?
Answer: Its Kd is 384 µM.

Question: KHQAHH [DPL_1060] was tested. Which Kd did it give?
Answer: Its Kd is 0.0431 µM.

Question: Which Kd does the source give for RKQHCK [DPL_1057] here?
Answer: Its Kd is 1.53 µM.

Same assay, conditions: SPR, peptide to PEDV S protein; value repeated on each docking-pose line of the peptide

Question: With FWKHRI [DPL_1029] as the compound, how does the Kd read?
Answer: Its Kd is 36 µM.

Question: With FWKCDV [DPL_1022] as the compound, how does the Kd read?
Answer: The Kd was 116 µM.

Question: For FWKHEK [DPL_1025], which Kd is on record?
Answer: The Kd was 132 µM.

Question: How did the Kd turn out when FWKLWS [DPL_1024] was run?
Answer: Its Kd is 0.987 µM.

Question: How did the Kd turn out when FWKYNT [DPL_1023] was run?
Answer: Its Kd is 32.5 µM.

Question: FWKFNE [DPL_1027] was tested. Which Kd did it give?
Answer: Its Kd is 56.6 µM.

Question: With FWKWWW [DPL_1026] as the compound, how does the Kd read?
Answer: Its Kd is 17.7 µM.

Question: Which Kd does the source give for FWKYAW [DPL_1028] here?
Answer: The Kd was 56.8 µM.

Same assay, conditions: SPR, receptor PEDV S; value repeated on each of the 20 docking-pose lines per peptide

Question: For FWKPDQ [DPL_1019], which Kd is on record?
Answer: The Kd was 16.7 µM.

Question: For FWKHDI [DPL_1017], which Kd is on record?
Answer: Its Kd is 56.2 µM.

Question: With FWKPKR [DPL_1021] as the compound, how does the Kd read?
Answer: Its Kd is 39.5 µM.

Question: For FWKYHE [DPL_1015], which Kd is on record?
Answer: Its Kd is 43.4 µM.

Question: With FWKFWK [DPL_1018] as the compound, how does the Kd read?
Answer: The Kd was 25.4 µM.

Question: With FWKWHW [DPL_1014] as the compound, how does the Kd read?
Answer: The Kd was 0.136 µM.

Question: How did the Kd turn out when FWKKED [DPL_1020] was run?
Answer: The Kd was 7.04 µM.

Question: With FWKSWH [DPL_1016] as the compound, how does the Kd read?
Answer: Its Kd is 34.9 µM.

Question: For FWKQNK [DPL_1013], which Kd is on record?
Answer: Its Kd is 1190 µM.

Same assay, conditions: receptor PEDV S; PEDV peptide dataset for model performance validation; value repeated on each of the peptide's 20 lines

Question: With KHQHFG [DPL_1063] as the compound, how does the Kd read?
Answer: The Kd was 9.99 µM.

Question: With KHQVHR [DPL_1064] as the compound, how does the Kd read?
Answer: Its Kd is 9.82 µM.

Question: How did the Kd turn out when KHQKRC [DPL_1067] was run?
Answer: The Kd was 0.139 µM.

Same assay, conditions: receptor PEDV S; PEDV peptide dataset used for model performance validation; same value repeated on each line of a peptide

Question: For RKQKDW [DPL_1049], which Kd is on record?
Answer: Its Kd is 0.35 µM.

Question: With RKQSHK [DPL_1052] as the compound, how does the Kd read?
Answer: Its Kd is 44.5 µM.

Question: Which Kd does the source give for WHFGSK [DPL_1047] here?
Answer: The Kd was 69.8 µM.

Question: Which Kd does the source give for RKQWPQ [DPL_1050] here?
Answer: Its Kd is 0.556 µM.

Question: Which Kd does the source give for RKQICW [DPL_1053] here?
Answer: The Kd was 21.8 µM.

Question: With RKQGVK [DPL_1054] as the compound, how does the Kd read?
Answer: Its Kd is 192 µM.

Question: WHFMIK [DPL_1048] was tested. Which Kd did it give?
Answer: Its Kd is 0.13 µM.

Question: Which Kd does the source give for RKQFDK [DPL_1051] here?
Answer: Its Kd is 0.00736 µM.

Each compound was assayed against T1, amyloid β-protein 42 (Aβ-42) (Homo sapiens, UniProt P05067) (assay: SPR affinity assay (Biacore X100), KD of peptides to Aβ-42). Details: Biacore X100, protein coupled to CM5 chip, HBS-EP buffer, six peptide concentrations, same value repeated on each docking-run line.
T1 construct: amyloid β-protein 42 (Aβ-42, n = 79)
Assay type: binding
Description: as §1

T1 sequence (P05067 672-713 limits assumed): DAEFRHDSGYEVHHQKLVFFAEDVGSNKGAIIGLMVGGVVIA

Question: YVRHGH [DPL_1069] was tested. Which Kd did it give?
Answer: The Kd was 37.1 µM.
